Test results from patent US6284918A, “Selective inhibitors of prostaglandin endoperoxide synthase-2” (priority 1999, dated 2001).
Read-outs that look alike come from different tables or passages of the source.

Columns and labels:
human PGHS-2 = target: T1, human PGHS-2 (Homo sapiens, UniProt P35354); experiment: Time- and concentration-dependent inhibition of human PGHS-2, TLC assay (3 h preincubation); type: biochemical; settings: for IC50: PGHS-2 88 nM; for inhibition of PGHS-2 (in words): table footnotes; for IC50 (PGHS-1)/IC50 (PGHS-2): selectivity ratio, 180 min
T1 construct: made in house; host or cells: insect cells (baculovirus vectors)
T1 sequence (P35354 18-604): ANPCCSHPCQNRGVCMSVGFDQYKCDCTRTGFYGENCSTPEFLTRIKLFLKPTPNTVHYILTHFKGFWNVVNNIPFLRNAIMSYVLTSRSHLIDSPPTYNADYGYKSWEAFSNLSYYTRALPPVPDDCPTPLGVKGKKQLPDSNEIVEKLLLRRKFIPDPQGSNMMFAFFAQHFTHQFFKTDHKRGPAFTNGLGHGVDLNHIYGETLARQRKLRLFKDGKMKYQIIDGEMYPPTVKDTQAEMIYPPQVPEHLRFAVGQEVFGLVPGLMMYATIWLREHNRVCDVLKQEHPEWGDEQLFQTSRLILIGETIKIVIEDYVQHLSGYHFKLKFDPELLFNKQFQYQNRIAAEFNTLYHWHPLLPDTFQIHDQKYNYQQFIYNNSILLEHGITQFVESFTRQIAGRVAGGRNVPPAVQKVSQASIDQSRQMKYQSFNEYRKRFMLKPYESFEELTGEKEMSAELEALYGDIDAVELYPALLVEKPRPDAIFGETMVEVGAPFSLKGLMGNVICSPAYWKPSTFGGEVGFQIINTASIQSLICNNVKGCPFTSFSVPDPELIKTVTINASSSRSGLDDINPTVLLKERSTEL
Method: (§1) Cyclooxygenase activity of ovine PGHS-1 (22 nM) or human PGHS-2 (88 nM) was assayed by TLC. Reaction mixtures of 200 μL consisted of hematin-reconstituted protein in 100 mM Tris-HCl, pH 8.0, 500 μM phenol, and [1-^14 C]arachidonic acid (50 μM, 57 mCi/mmol). For the time-dependent inhibition assay, hematin-reconstituted PGHS-1 (22 nM) or PGHS-2 (88 nM) was preincubated at room temperature for 2 hours and then at 0° C. for 1 hour with varying concentrations of inhibitor in DMSO followed by the addition of [1-^14 C]arachidonic acid (50 μM) for 30 seconds at 37° C. Reactions were terminated by solvent extraction in diethyl ether/methanol/1 M citrate, pH 4.0 (30:4:1). The organic phase was spotted on a TLC plate (Amersham Corp.). The plate was developed with ethyl acetate/methylene chloride/glacial acetic acid (75:25:1) at 4° C. Radiolabeled products were quantitated with a radioactivity scanner (Bioscan, Inc., Washington, D.C.).
(§2) conducted at room temperature for 3 hours. The cyclooxygenase reaction was
(§3) initiated by the addition of 14C-arachidonic acid (50 μM) to the
(§4) incubation mixtures at 37 C for 30 seconds.
(§5) conducted at room temperature for 3 hours. The cyclooygenase reaction was
(§6) initiated by the addition of ^14 C-arachidonic acid ([…]) to the
(§7) incubation mixtures at 37° C. for 30 sec.

ovine PGHS-1 = target: T2, ovine PGHS-1 (Ovis aries, UniProt P05979); experiment: Time- and concentration-dependent inhibition of ovine PGHS-1, TLC assay (3 h preincubation); type: biochemical; settings: for inhibition of PGHS-1 (in words): table footnotes
T2 construct: PGHS-1 was purified from sheep seminal vesicles as described earlier; tissue Oxford Biomedical Research, Inc. (supplier of the sheep seminal vesicles); host or cells: sheep seminal vesicles
T2 sequence (P05979 25-600): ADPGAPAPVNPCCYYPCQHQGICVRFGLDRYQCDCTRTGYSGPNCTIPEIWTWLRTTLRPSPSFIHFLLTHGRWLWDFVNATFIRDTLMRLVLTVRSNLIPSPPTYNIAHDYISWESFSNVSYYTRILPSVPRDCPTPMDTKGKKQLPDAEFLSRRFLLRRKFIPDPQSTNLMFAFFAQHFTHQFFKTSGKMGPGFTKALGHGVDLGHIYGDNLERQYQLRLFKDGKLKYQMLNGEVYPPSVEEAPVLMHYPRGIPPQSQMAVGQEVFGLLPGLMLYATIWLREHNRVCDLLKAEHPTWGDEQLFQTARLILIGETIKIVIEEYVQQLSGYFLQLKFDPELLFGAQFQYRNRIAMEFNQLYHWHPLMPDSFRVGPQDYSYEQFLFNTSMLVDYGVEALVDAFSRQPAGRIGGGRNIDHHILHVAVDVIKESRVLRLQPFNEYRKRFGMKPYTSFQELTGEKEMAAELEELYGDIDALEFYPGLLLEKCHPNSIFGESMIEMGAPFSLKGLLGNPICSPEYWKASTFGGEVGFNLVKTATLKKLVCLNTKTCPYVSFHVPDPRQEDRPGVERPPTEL
Method: as §1, §2, §3, §4, §5, §6, §7

hCOX-2 = target: T3, hCOX-2 (Homo sapiens, UniProt P35354); experiment: Time- and concentration-dependent inhibition of hCOX-2 (1 h incubation); type: biochemical
T3 construct: made in house; host or cells: insect cells (baculovirus vectors)
T3 sequence (P35354 18-604): T1 sequence (P35354 18-604)
Method: (§8) ^a IC50 values were determined by incubating several inhibitor
(§9) concentrations in DMSO with purified hCOX-2 or oCOX-1 for 1 h at rt;
(§10) assays were run in duplicate. IC50 values are average of duplicate
(§11) determinations for each test compounds.

oCOX-1 = target: T4, oCOX-1 (Ovis aries, UniProt P05979); experiment: Time- and concentration-dependent inhibition of oCOX-1 (1 h incubation); type: biochemical, ovine
T4 construct: PGHS-1 was purified from sheep seminal vesicles as described earlier; tissue Oxford Biomedical Research, Inc. (supplier of the sheep seminal vesicles); host or cells: sheep seminal vesicles
T4 sequence (P05979 25-600): T2 sequence (P05979 25-600)
Method: as §8, §9, §10, §11

[1] = Table 1, 3 h at room temperature, 50 μM 14C-arachidonic acid
[2] = Table 1, 22 nM enzyme, 3 h at room temperature, 50 μM 14C-arachidonic acid
[3] = Table 2, 3 h at room temperature
[4] = Table 2, PGHS-1 22 nM, 3 h at room temperature
[5] = Table 3, 1 h at rt, average of duplicates, read-out: IC50 hCOX-2
[6] = Table 3, 1 h at rt, average of duplicates, read-out: IC50 oCOX-1

Compound	IC50 (human PGHS-2; [3])	IC50 (PGHS-1)/IC50 (PGHS-2) (human PGHS-2; Table 2)	IC50 (ovine PGHS-1; [4])	other results
CSc1ccccc1OC(=O)C(F)(F)F [Compound 6]	–	–	–	inhibition at 100 µM (human PGHS-2; FIG. 8, 0.1 mM): ~35%
CSc1ccccc1OC(=O)CCl [Compound 7, 2-(α-chloroacetoxy)thioanisole]	–	–	–	IC50 (human PGHS-2; [1]): 360 µM; IC50 (ovine PGHS-1; [2]): 0.39 mM
CSc1ccccc1OC(=O)CBr [Compound 8, 2-(α-bromoacetoxy)thioanisole]	–	–	–	IC50 (human PGHS-2; [1]): 510 µM; IC50 (ovine PGHS-1; [2]): 0.32 mM
CCCCCCCSc1ccccc1O [Compound 38, 2-Hydroxyphenylheptyl sulfide]	–	–	–	inhibition of cyclooxygenase activity of human holoPGHS-2 (in words) (human PGHS-2; FIG. 9, 3 h at room temperature): very little effect; inhibition of PGHS-2 (in words) (human PGHS-2): did not inhibit; inhibition of PGHS-1 (in words) (ovine PGHS-1): did not inhibit
CCSc1ccccc1OC(C)=O [Compound 49, 2-Acetoxyphenylethyl sulfide]	200 µM	1.8	0.375 mM	–
CCCSc1ccccc1OC(C)=O [Compound 50, 2-Acetoxyphenylpropyl sulfide]	66 µM	1.0	0.066 mM	–
CC(=O)Oc1ccccc1SCC(C)C [Compound 51, 2-Acetoxyphenyl-2-methylpropyl sulfide]	40 µM	1.2	0.034 mM	–
CCCCCCSc1ccccc1OC(C)=O [Compound 53, 2-Acetoxyphenylhexyl sulfide]	3.5 µM	2.3	0.008 mM	–
CCCCCCCCSc1ccccc1OC(C)=O [Compound 55, 2-Acetoxyphenyloctyl sulfide]	> 33 µM	–	> 0.033 mM	–
CCCCCCCCCSc1ccccc1OC(C)=O [Compound 56, 2-Acetoxyphenylnonyl sulfide]	> 33 µM	–	> 0.033 mM	–
CC(=O)Oc1ccccc1SC1CCCCC1 [Compound 57, 2-Acetoxyphenylcyclohexyl sulfide]	> 33 µM	–	> 0.033 mM	–
CC(=O)Oc1ccccc1SC1CCCCCC1 [Compound 58, 2-Acetoxyphenylcycloheptyl sulfide]	> 33 µM	–	> 0.033 mM	–
CC(=O)Oc1ccccc1SCCc1ccccc1 [Compound 60, 2-Acetoxyphenyl-2-phenylethyl sulfide]	–	–	–	IC50 (human PGHS-2; [1]): 100 µM
CC(=O)Oc1ccccc1SCCCCCCCC(=O)O [Compound 63, 2-Acetoxyphenyl-8-carboxyheptyl sulfide]	–	–	–	IC50 (ovine PGHS-1; Table 1, cell printed in mM): > 1 mM
CCCCOCCSc1ccccc1OC(C)=O [Compound 67, 2-Acetoxyphenyl-2-butoxyethyl sulfide]	7 µM	3	0.022 mM	inhibition of cyclooxygenase activity of human holoPGHS-2 (in words) (human PGHS-2; FIG. 11, 8 μM (compound 67)): greatly inhibited
CCOCCCSc1ccccc1OC(C)=O [Compound 71, 2-Acetoxyphenyl-3-ethoxypropyl sulfide]	> 33 µM	–	> 0.033 mM	inhibition of cyclooxygenase activity of human holoPGHS-2 (in words) (human PGHS-2; FIG. 11, 8 μM (compound 67)): very little effect
CCCC/C=C/CSc1ccccc1OC(C)=O [Compound 75, 2-Acetoxyphenyl-trans-hept-2-enyl sulfide]	–	–	> 0.0165 mM	inhibition at 16.5 µM (ovine PGHS-1; at 16.5 μM): ~25%
CCCCC#CCSc1ccccc1O [Compound 82, 2-Hydroxyphenyl-hept-2-ynyl sulfide]	–	–	–	inhibition of cyclooxygenase activity of human holoPGHS-2 (in words) (human PGHS-2; FIGS. 12 and 13, 1-16 μM): very little effect; inhibition of PGHS-2 (in words) (human PGHS-2): did not inhibit; inhibition of PGHS-1 (in words) (ovine PGHS-1): did not inhibit
CCCC#CCSc1ccccc1OC(C)=O [Compound 88, 2-Acetoxyphenylhex-2-ynyl sulfide]	3 µM	4.6	0.014 mM	inhibition of cyclooxygenase activity of human holoPGHS-2 (in words) (human PGHS-2; FIGS. 12 and 13, 1-16 μM): greatly inhibited
CCC#CCSc1ccccc1OC(C)=O [Compound 89, 2-Acetoxyphenylpent-2-ynyl sulfide]	5 µM	4	0.02 mM	–
CC#CCSc1ccccc1OC(C)=O [Compound 90, 2-Acetoxyphenyl-but-2-ynyl sulfide]	–	> 2	> 0.035 mM	–
C#CCSc1ccccc1OC(C)=O [Compound 91, 2-Acetoxyphenyl-prop-2-ynyl sulfide]	25 µM	1.6	0.04 mM	–
CCCCCCCS(=O)(=O)c1ccccc1OC(C)=O [Compound 93, 2-Acetoxyphenylheptyl sulfone]	–	–	–	inhibition of PGHS-2 (in words) (human PGHS-2): very poor inhibitor; inhibition of PGHS-1 (in words) (ovine PGHS-1): very poor inhibitor
CCCCCC#CCSc1ccccc1OC(C)=O [Compound 109, 2-Acetoxyphenyloct-2-ynyl sulfide]	–	–	–	IC50 (hCOX-2; [5]): 7 µM; IC50 (oCOX-1; [6]): 33 µM
CCCCCCC#CCSc1ccccc1OC(C)=O [Compound 110, 2-Acetoxyphenylnon-2-ynyl sulfide]	–	–	–	IC50 (hCOX-2; [5]): 12.5 µM; IC50 (oCOX-1; [6]): 50 µM
CCCCCCCC#CCSc1ccccc1OC(C)=O [Compound 111, 2-Acetoxyphenyldec-2-ynyl sulfide]	–	–	–	IC50 (hCOX-2; [5]): 16 µM; IC50 (oCOX-1; [6]): > 50 µM
CCCC#CCCSc1ccccc1OC(C)=O [Compound 115, 2-Acetoxyephenylhept-3-ynyl sulfide]	–	–	–	IC50 (hCOX-2; [5]): 6.5 µM; IC50 (oCOX-1; [6]): 18 µM
CCCCC#CCSc1ccccc1OC(N)=O [Compound 122, 2-Carbamoyloxyphenylhept-2-ynyl sulfide]	–	–	–	IC50 (hCOX-2): > 40 µM; IC50 (oCOX-1): > 40 µM
CCCCC#CCSc1ccccc1OC(=O)CBr [Compound 123, 2-(α-bromoacetoxy)phenylhept-2-ynyl sulfide]	–	–	–	IC50 (hCOX-2; [5]): 26 µM; IC50 (oCOX-1; [6]): 20 µM
CCCCC#CCSc1ccccc1OS(C)(=O)=O [Compound 124, 2-Methylsulfonyloxyphenylhept-2-ynyl sulfide]	–	–	–	IC50 (hCOX-2; [5]): > 40 µM; IC50 (oCOX-1; [6]): > 40 µM
